Assay results taken from patent US12070464B2, “Methods of treating myeloproliferative disorders” (priority 2019, dated 2024).

System: CD34+ cells isolated from healthy donor bone marrow
Assay: Megakaryocyte differentiation, single agent, 14 days (FACS)
Type: cell-based
Conditions: FIG. 2
Protocol: The effects of Compound 1 on megakaryocyte differentiation and proliferation were evaluated using CD34+ cells isolated from healthy donor bone marrow (data on file). The CD34+cells were grown in megakaryocyte differentiation serum-free stem cell differentiation base medium with a megakaryocyte-driving cytokine cocktail for 14 days with DMSO or Compound 1 at concentrations ranging from 3 nM to 500 nM. The cells were then stained for CD34 (progenitor marker), CD45 (leukocyte marker) and CD41a (mature megakaryocyte marker) and assessed by FACS for viability and marker expression. CD41a expression and cell size were used as markers of megakaryocyte differentiation. […] The shift from high to low CD41a expression began at approximately 50 nM, with pronounced effects observed at 200 to 500 nM, as shown in FIG. 2.

Cc1noc2c1-c1ccccc1C(c1ccc(Cl)cc1)=N[C@H]2CC(N)=O [Compound 1, 2-((4S)-6-(4-chlorophenyl)-1-methyl-4H-benzo[c]isoxazolo[4,5-e]azepin-4-yl)acetamide]
concentration at which shift from high to low CD41a expression began: approximately 50 nM
